Tested on: 817829-284-R-J1-PDC complex spheroids, viability
Assay: Anticancer human tumor 817829-284-R-J1-PDC patient-derived colon adenocarcinoma cell line growth inhibition [GQUAD]
Details: for IC50: curve of first compound; for viability, T/C: stronger effect = lower value
Description: DNA G-quadruplex Stabilizer Agents in Combinations in Complex Spheroids
A high-throughput screen of multi-cell type tumor spheroids was designed to identify active combinations of DNA G-quadruplex stabilizer agents and targeted small molecules. Complex spheroids include a stromal component modeled by human endothelial cells (HUVEC) and fibroblasts modeled by human mesenchymal stem cells (MSCs). The concentration ranges selected for each drug and investigational agent were based upon clinically achievable concentrations if the clinical Cmax of the agent was known.
Compounds. The drugs and investigational agents: pidnarulex (CX-5461; NSC782164), APTO-253 (NSC789042), BRACO-19 (NSC847499), peposertib (NSC802822), ceralasertib (NSC780249), elimusertib (NSC800525), camonsertib (NSC841442), AZD-1390 (NSC803789), olaparib (NSC753686), talazoparib (NSC767125), ART-558 (NSC835418), sotorasib (NSC818433), MRTX-1133 (NSC836407), SN-38 (NSC673596), topotecan (NSC609699), etoposide (NSC141540), doxorubicin (NSC123127), gemcitabine (NSC613327), 5-fluorouracil (NSC19893), paclitaxel (NSC125973), vemurafenib (NSC761431), panobinostat (NSC761190), R-306465 (JNJ-16241199; NSC773264), adavosertib (NSC754352), TP-3654 (NSC805149), carboplatin (NSC241240), KSQ-4279 (NSC840948), and staurosporine (NSC755774) were obtained from the National Cancer Institute (NCI) Developmental Therapeutics Program Chemical Repository (34). The FDA-approved anticancer drug set is available from the NCI Developmental Therapeutics Program. […] The stock solutions were prepared in dimethyl sulfoxide (DMSO, Sigma-Aldrich, St. Louis, MO, cat. D2650) at 800-fold the tested concentration and stored at -70 degrees C prior to their use. All drugs and investigational agents were tested over a range starting from a high concentration at or near the clinical Cmax and decreasing in half-log increments. If the clinical Cmax for an agent had not been determined, the highest concentration tested was 10 microM.
2.3 Cell Culture. All cells were maintained in an incubator at 37 degrees C and 5% CO2 with 95% humidity. The PDC lines were cultured according to standard operating procedures established by the NCI PDMR. All PDCs were thawed and cultured in Matrigel-coated flasks prepared with a working solution of 1X Ham's F-12 nutrient mix, without supplementation (Invitrogen, cat. 11765054), 100 U/mL penicillin-streptomycin (Invitrogen, cat. 15140122), and 2.5% Matrigel (Corning Inc., cat. 354248) for the first three passages. The 857933-349-R-J2-PDC line was cultured in 6C/Colon 1B media, which includes advanced DMEM/F-12 (Thermo Fisher Scientific, cat. 12634028), 10 mM HEPES (Thermo Fisher Scientific, cat. 15630080), 1X GlutaMAX supplement (Thermo Fisher Scientific, cat. 35050061), 0.1 mg/mL primocin (InvivoGen, cat. ant-pm-2), 10% defined fetal bovine serum, heat inactivated (HyClone Laboratories Inc., cat. SH30070.03HI), 50% L-WRN conditioned media (ATCC, cat. CRL-3276), 1.25 mM N-Acetyl-L-cysteine (Sigma-Aldrich, cat. A9165), 10 mM nicotinamide (Sigma-Aldrich, cat. N0636), 1X B-27 supplement (Thermo Fisher Scientific, cat. 17504044), 1X N-2 supplement (Thermo Fisher Scientific, cat. 17502048), 10 microM Y-27632 dihydrochloride (Tocris Bioscience, cat. 1254), and 50 ng/mL human EGF recombinant protein (Thermo Fisher Scientific, cat. PHG0311). The 485176-168-R4-J1-PDC line was cultured in Panc media, which includes all 6C/Colon 1B media components plus 100 ng/mL human FGF-10 (Thermo Fisher Scientific, cat. 100-26), 500 nM SB-431542 (Selleckchem, cat. S1067), and gastrin (Tocris, cat. 3006).
[…]
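Further: spheroids exposed to agents for 7 days before readout.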
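Wherever viability, T/C is given: percent viability relative to DMSO vehicle control taken as 100%.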

IC50 (second compound 0.0316 µM): 799 nM | IC50 (second compound 0.1 µM): < 31.6 nM | IC50 (second compound 0.316 µM): < 31.6 nM | IC50 (second compound 1 µM): < 31.6 nM | IC50 (second compound 3.16 µM): < 31.6 nM | IC50 (second compound 10 µM): < 31.6 nM
Structure (SMILES): O=c1[nH]cc(F)c(=O)[nH]1 + Cc1cnc(CNC(=O)c2c(=O)c3ccc(N4CCCN(C)CC4)nc3n3c2sc2ccccc23)cn1
viability, T/C (second compound 0.0316 µM, first compound 0.0316 µM): 91.4% | viability, T/C (second compound 0.0316 µM, first compound 0.1 µM): 75.3% | viability, T/C (second compound 0.0316 µM, first compound 0.316 µM): 77.6% | viability, T/C (second compound 0.0316 µM, first compound 1 µM): 43% | viability, T/C (second compound 0.0316 µM, first compound 3.16 µM): 37.6% | viability, T/C (second compound 0.0316 µM, first compound 10 µM): 33% | viability, T/C (second compound 0.1 µM, first compound 0.0316 µM): 29.9% | viability, T/C (second compound 0.1 µM, first compound 0.1 µM): 41.6% | viability, T/C (second compound 0.1 µM, first compound 0.316 µM): 34.2% | viability, T/C (second compound 0.1 µM, first compound 1 µM): 35.5% | viability, T/C (second compound 0.1 µM, first compound 3.16 µM): 29.1% | viability, T/C (second compound 0.1 µM, first compound 10 µM): 25.7% | viability, T/C (second compound 0.316 µM, first compound 0.0316 µM): 25.3% | viability, T/C (second compound 0.316 µM, first compound 0.1 µM): 27.6% | viability, T/C (second compound 0.316 µM, first compound 0.316 µM): 32.9% | viability, T/C (second compound 0.316 µM, first compound 1 µM): 26.8% | viability, T/C (second compound 0.316 µM, first compound 3.16 µM): 26.7% | viability, T/C (second compound 0.316 µM, first compound 10 µM): 23.3% | viability, T/C (second compound 1 µM, first compound 0.0316 µM): 22.8% | viability, T/C (second compound 1 µM, first compound 0.1 µM): 22.4% | viability, T/C (second compound 1 µM, first compound 0.316 µM): 23.5% | viability, T/C (second compound 1 µM, first compound 1 µM): 24.8% | viability, T/C (second compound 1 µM, first compound 3.16 µM): 22.9% | viability, T/C (second compound 1 µM, first compound 10 µM): 21.4% | viability, T/C (second compound 3.16 µM, first compound 0.0316 µM): 21.8% | viability, T/C (second compound 3.16 µM, first compound 0.1 µM): 21.2% | viability, T/C (second compound 3.16 µM, first compound 0.316 µM): 19.6% | viability, T/C (second compound 3.16 µM, first compound 1 µM): 19.5% | viability, T/C (second compound 3.16 µM, first compound 3.16 µM): 20.1% | viability, T/C (second compound 3.16 µM, first compound 10 µM): 18% | viability, T/C (second compound 10 µM, first compound 0.0316 µM): 0.08% | viability, T/C (second compound 10 µM, first compound 0.1 µM): 0.13% | viability, T/C (second compound 10 µM, first compound 0.316 µM): 0.17% | viability, T/C (second compound 10 µM, first compound 1 µM): 0.14% | viability, T/C (second compound 10 µM, first compound 3.16 µM): 0.19% | viability, T/C (second compound 10 µM, first compound 10 µM): 0.16%

— PubChem BioAssay AID2060503 (Molecular Pharmacology Branch, DTP, NCI, 2025)
